According to patent US4426377A, “Clavulanic acid derivatives their preparation and use” (Beecham Group Limited, priority 1977, dated 1984):
Each block holds one compound with its values, some of them ahead of it.

Legend:
Escherichia coli JT 39 = assay: CD50 in intraperitoneal Escherichia coli JT 39 infection in mice, sub-cutaneous dosing (Demonstration 2); assay type: in vivo, mice infected with Escherichia coli; conditions: with amoxycillin, E. coli JT 39 infection in mice
Method: b. […] Dosing was sub-cutaneous and 1 and 5 hours post infection.

Staph. Russell = assay: microliter MIC test, Staph. Russell; assay type: cell-based, Staphylococcus
Method: (§1) a. The antibacterial and synergistic activity of the title compound (referred to as "Synergist" in the Table) was determined by a conventional microliter method.

E. Coli JT 410 = assay: microliter MIC test, E. coli JT 410; assay type: cell-based, Escherichia coli
Method: as §1

Kleb. E 70 = assay: microliter MIC test, Kleb. E 70; assay type: cell-based, Klebsiella
Method: as §1

Proteus C 889 = assay: microliter MIC test, Proteus C 889; assay type: cell-based; conditions: for MIC of ampicillin with title compound: trailing end point
Method: as §1

[1] = signs of drug toxicity during the in-vivo tests; conditions: during the in-vivo tests in mice
Method: (§2) a. Sub-cutanvenous administration: Groups of mice were infected inter peritoneally with Escherichia coli JT39. At 1 and 5 hours post infection the mice were treated with amoxycillin (Amox.) or with amoxycillin and synergist. The solutions were made up in phosphate buffer. The results were as follows:
(§3) b. Oral administration: Groups of mice were infected inter peritoneally with Escherichia coli JT39. At 1, 3 and 5 hours post-infection the mice were treated with amoxycillin or with amoxycillin and synergist. The solutions were made up in phosphate buffer.

[2] = tested on: gram negative bacteria such as Escherichia and Klebsiella and gram positive bacteria such as Staphylococcus; assay: summary of synergism with penicillins; conditions: against gram negative and gram positive bacteria
Method: as §2, §3

SMILES: CC(NC=O)OC/C=C1\O[C@@H]2CC(=O)N2[C@H]1C(=O)O (some centres unmarked) [Example 9, Lithium 9-O-(1-formamidoethyl)clavulanate]
effect on the effectiveness of amoxycillin (Escherichia coli JT 39): found to enhance the effectiveness of amoxycillin

MIC of ampicillin with title compound/synergist (Staph. Russell; Amp. + 1 μg/ml of the compound): 1.25 µg/mL
MIC of ampicillin with title compound/synergist (Staph. Russell; Amp. + 5 μg/ml of the compound): 0.15 µg/mL
MIC (Staph. Russell; alone): 8 µg/mL
MIC of ampicillin with title compound/synergist (E. Coli JT 410; Amp. + 5 μg/ml of the compound): 62.5 µg/mL
MIC (E. Coli JT 410; alone): 62.5 µg/mL
MIC of ampicillin with title compound/synergist (Kleb. E 70; Amp. + 1 μg/ml of the compound): 6.25 µg/mL
MIC of ampicillin with title compound/synergist (Kleb. E 70; Amp. + 5 μg/ml of the compound): 1.5 µg/mL
MIC (Kleb. E 70; alone): 62.5 µg/mL
MIC of ampicillin with title compound (Proteus C 889; Amp. + 1 μg/ml of the compound): 8 µg/mL
MIC of ampicillin with title compound (Proteus C 889; Amp. + 5 μg/ml of the compound): 2 µg/mL
MIC (Proteus C 889; alone): 250 µg/mL
SMILES: NCC(=O)NCOCC=C1OC2CC(=O)N2C1C(=O)O (centres unmarked) [Example 11, 9-O-(Glycylaminomethyl)clavulanic acid]

SMILES: O=C1CC(OC/C=C2\O[C@@H]3CC(=O)N3[C@H]2C(=O)O)N1 (some centres unmarked) [Example 2, Sodium 9-O-(azetidin-2'-on-4'-yl)clavulanate]
signs of drug toxicity [1]: No signs of drug toxicity were observed
synergism with penicillins such as amoxycillin [2]: effective synergist for penicillins such as amoxycillin against gram negative bacteria such as Escherichia and Klebsiella and gram positive bacteria such as Staphylococcus
